Like-named read-outs stand apart in the source and are kept apart here.
Experiment: Plasma pharmacokinetics (LC-MS/MS)
Format: in vivo, human
Settings: for AUC(0-inf) / half-life / AUC(0-t) / Cmax / Tmax / concentration at 15 day: human, plasma, oral; for Tmax: read-out: Tmax, Median (Min, max); for concentration at 15 day: read-out: Cmin, Median (Min, max)
Experimental: In the dose escalation part of the study, PK samples were collected at various pre- and post-dose time points on C1D1, D2, D3, D15 and D16. Drug concentrations were assessed using a validated liquid chromatography-tandem mass spectrometry assay.

## CC1(N)CCN(c2cccnc2NC(=O)c2nc(-c3ncccc3C(F)(F)F)cnc2N)CC1 [LXS196]
C1D1 and D15, QD and BID
  Increase in exposure (AUC0–t and Cmax) with dose: under-proportional
C1D15, 100 mg QD, n=2
  Racc (accumulation ratio), Geo-mean: 1.2
  Racc (accumulation ratio), Mean (SD): 1.27 (0.570)
  Racc (accumulation ratio), Median (Min, max): 1.27 (0.867, 1.67)
C1D15, 100 mg QD, n=3
  Cmin, Geo-mean: 137 ng/mL
  Cmin, Mean (SD): 144 (58.0) ng/mL
C1D15, 200 mg BID, n=5
  Cmin, Geo-mean: 705 ng/mL
  Cmin, Mean (SD): 787 (376) ng/mL
  Racc (accumulation ratio), Geo-mean: 0.989
  Racc (accumulation ratio), Mean (SD): 1.11 (0.611)
  Racc (accumulation ratio), Median (Min, max): 0.852 (0.539, 2.00)
C1D15, 200 mg QD, n=2
  Racc (accumulation ratio), Geo-mean: 0.743
  Racc (accumulation ratio), Mean (SD): 0.750 (0.145)
  Racc (accumulation ratio), Median (Min, max): 0.75 (0.647, 0.852)
C1D15, 200 mg QD, n=3
  Cmin, Geo-mean: 134 ng/mL
  Cmin, Mean (SD): 143 (59.2) ng/mL
C1D15, 300 mg BID, n=12
  Racc (accumulation ratio), Geo-mean: 1.09
  Racc (accumulation ratio), Mean (SD): 1.15 (0.403)
  Racc (accumulation ratio), Median (Min, max): 1.07 (0.549, 1.98)
C1D15, 300 mg BID, n=17
  Cmin, Geo-mean: 912 ng/mL
  Cmin, Mean (SD): 1040 (462) ng/mL
  Cmin, Median (Min, max): 1070 (155, 2100) ng/mL
C1D15, 300 mg QD, n=13
  Racc (accumulation ratio), Geo-mean: 0.895
  Racc (accumulation ratio), Mean (SD): 0.934 (0.307)
  Racc (accumulation ratio), Median (Min, max): 0.838 (0.577, 1.72)
C1D15, 300 mg QD, n=14
  Cmin, Geo-mean: 344 ng/mL
  Cmin, Mean (SD): 426 (319) ng/mL
C1D15, 400 mg BID, n=3
  Racc (accumulation ratio), Geo-mean: 0.721
  Racc (accumulation ratio), Mean (SD): 0.738 (0.204)
  Racc (accumulation ratio), Median (Min, max): 0.643 (0.599, 0.972)
C1D15, 400 mg BID, n=4
  Cmin, Geo-mean: 627 ng/mL
  Cmin, Mean (SD): 647 (194) ng/mL
  Cmin, Median (Min, max): 608 (464, 909) ng/mL
C1D15, 500 mg QD, n=8
  Racc (accumulation ratio), Geo-mean: 0.767
  Racc (accumulation ratio), Mean (SD): 0.793 (0.214)
  Racc (accumulation ratio), Median (Min, max): 0.768 (0.484, 1.11)
C1D15, 500 mg QD, n=9
  Cmin, Geo-mean: 622 ng/mL
  Cmin, Mean (SD): 660 (234) ng/mL
C1D15, 1000 mg QD, n=2
  Cmin, Geo-mean: 673 ng/mL
  Cmin, Mean (SD): 674 (10.6) ng/mL
  Racc (accumulation ratio), Geo-mean: 0.709
  Racc (accumulation ratio), Mean (SD): 0.718 (0.161)
  Racc (accumulation ratio), Median (Min, max): 0.718 (0.604, 0.832)
between-patient
  PK variability (CV% for Cmax and AUC0–t): moderate
100 mg, C1D1, 100 mg QD, n=2, read-out: AUCinf, Geo-mean
  AUC(0-inf): 8560 ng·h/mL
100 mg, C1D1, 100 mg QD, n=2, read-out: AUCinf, Mean (SD)
  AUC(0-inf): 8640 ng·h/mL
100 mg, C1D1, 100 mg QD, n=2, read-out: AUCinf, Median (Min, max)
  AUC(0-inf): 8640 ng·h/mL
100 mg, C1D1, 100 mg QD, n=2, read-out: T1/2, Geo-mean (converted)
  half-life: 8.43 h
100 mg, C1D1, 100 mg QD, n=2, read-out: T1/2, Mean (SD) (converted)
  half-life: 8.49 h
100 mg, C1D1, 100 mg QD, n=2, read-out: T1/2, Median (Min, max) (converted)
  half-life: 8.49 h
100 mg, C1D1, 100 mg QD, n=3, read-out: AUC0-t, Geo-mean
  AUC(0-t): 8440 ng·h/mL
100 mg, C1D1, 100 mg QD, n=3, read-out: AUC0-t, Mean (SD)
  AUC(0-t): 8670 ng·h/mL
100 mg, C1D1, 100 mg QD, n=3, read-out: AUC0-t, Median (Min, max)
  AUC(0-t): 8020 ng·h/mL
100 mg, C1D1, 100 mg QD, n=3, read-out: Cmax, Geo-mean
  Cmax: 774 ng/mL
100 mg, C1D1, 100 mg QD, n=3, read-out: Cmax, Mean (SD)
  Cmax: 776 ng/mL
100 mg, C1D1, 100 mg QD, n=3, read-out: Cmax, Median (Min, max)
  Cmax: 811 ng/mL
100 mg, C1D1, 100 mg QD, n=3
  Tmax: 1 h
100 mg, C1D15, 100 mg QD, n=2, read-out: AUC0-t, Geo-mean
  AUC(0-t): 10400 ng·h/mL
100 mg, C1D15, 100 mg QD, n=2, read-out: AUC0-t, Mean (SD)
  AUC(0-t): 10400 ng·h/mL
100 mg, C1D15, 100 mg QD, n=2, read-out: AUC0-t, Median (Min, max)
  AUC(0-t): 10400 ng·h/mL
100 mg, C1D15, 100 mg QD, n=3, read-out: Cmax, Geo-mean
  Cmax: 1180 ng/mL
100 mg, C1D15, 100 mg QD, n=3, read-out: Cmax, Mean (SD)
  Cmax: 1190 ng/mL
100 mg, C1D15, 100 mg QD, n=3, read-out: Cmax, Median (Min, max)
  Cmax: 1260 ng/mL
100 mg, C1D15, 100 mg QD, n=3
  concentration at 15 day: 112 ng/mL
  Tmax: 1 h
200 mg, C1D1, 200 mg BID, n=6, read-out: AUC0-t, Geo-mean
  AUC(0-t): 15400 ng·h/mL
200 mg, C1D1, 200 mg BID, n=6, read-out: AUC0-t, Mean (SD)
  AUC(0-t): 18600 ng·h/mL
200 mg, C1D1, 200 mg BID, n=6, read-out: AUC0-t, Median (Min, max)
  AUC(0-t): 13300 ng·h/mL
200 mg, C1D1, 200 mg BID, n=6, read-out: AUCinf, Geo-mean
  AUC(0-inf): 24000 ng·h/mL
200 mg, C1D1, 200 mg BID, n=6, read-out: AUCinf, Mean (SD)
  AUC(0-inf): 29200 ng·h/mL
200 mg, C1D1, 200 mg BID, n=6, read-out: AUCinf, Median (Min, max)
  AUC(0-inf): 21600 ng·h/mL
200 mg, C1D1, 200 mg BID, n=6, read-out: Cmax, Geo-mean
  Cmax: 3270 ng/mL
200 mg, C1D1, 200 mg BID, n=6, read-out: Cmax, Mean (SD)
  Cmax: 4070 ng/mL
200 mg, C1D1, 200 mg BID, n=6, read-out: Cmax, Median (Min, max)
  Cmax: 2950 ng/mL
200 mg, C1D1, 200 mg BID, n=6, read-out: T1/2, Geo-mean (converted)
  half-life: 13 h
200 mg, C1D1, 200 mg BID, n=6, read-out: T1/2, Mean (SD) (converted)
  half-life: 13.1 h
200 mg, C1D1, 200 mg BID, n=6, read-out: T1/2, Median (Min, max) (converted)
  half-life: 13.1 h
200 mg, C1D1, 200 mg BID, n=6
  Tmax: 0.525 h
200 mg, C1D1, 200 mg QD, n=3, read-out: AUC0-t, Geo-mean
  AUC(0-t): 18700 ng·h/mL
200 mg, C1D1, 200 mg QD, n=3, read-out: AUC0-t, Mean (SD)
  AUC(0-t): 19100 ng·h/mL
200 mg, C1D1, 200 mg QD, n=3, read-out: AUC0-t, Median (Min, max)
  AUC(0-t): 18900 ng·h/mL
200 mg, C1D1, 200 mg QD, n=3, read-out: AUCinf, Geo-mean
  AUC(0-inf): 21300 ng·h/mL
200 mg, C1D1, 200 mg QD, n=3, read-out: AUCinf, Mean (SD)
  AUC(0-inf): 21600 ng·h/mL
200 mg, C1D1, 200 mg QD, n=3, read-out: AUCinf, Median (Min, max)
  AUC(0-inf): 22600 ng·h/mL
200 mg, C1D1, 200 mg QD, n=3, read-out: Cmax, Geo-mean
  Cmax: 3410 ng/mL
200 mg, C1D1, 200 mg QD, n=3, read-out: Cmax, Mean (SD)
  Cmax: 3540 ng/mL
200 mg, C1D1, 200 mg QD, n=3, read-out: Cmax, Median (Min, max)
  Cmax: 2860 ng/mL
200 mg, C1D1, 200 mg QD, n=3, read-out: T1/2, Geo-mean (converted)
  half-life: 8.36 h
200 mg, C1D1, 200 mg QD, n=3, read-out: T1/2, Mean (SD) (converted)
  half-life: 8.52 h
200 mg, C1D1, 200 mg QD, n=3, read-out: T1/2, Median (Min, max) (converted)
  half-life: 8.44 h
200 mg, C1D1, 200 mg QD, n=3
  Tmax: 1 h
200 mg, C1D15, 200 mg BID, n=5, read-out: AUC0-t, Geo-mean
  AUC(0-t): 15400 ng·h/mL
200 mg, C1D15, 200 mg BID, n=5, read-out: AUC0-t, Mean (SD)
  AUC(0-t): 16900 ng·h/mL
200 mg, C1D15, 200 mg BID, n=5, read-out: AUC0-t, Median (Min, max)
  AUC(0-t): 16000 ng·h/mL
200 mg, C1D15, 200 mg BID, n=5, read-out: Cmax, Geo-mean
  Cmax: 2470 ng/mL
200 mg, C1D15, 200 mg BID, n=5, read-out: Cmax, Mean (SD)
  Cmax: 2910 ng/mL
200 mg, C1D15, 200 mg BID, n=5, read-out: Cmax, Median (Min, max)
  Cmax: 2540 ng/mL
200 mg, C1D15, 200 mg BID, n=5
  concentration at 15 day: 883 ng/mL
  Tmax: 1 h
200 mg, C1D15, 200 mg QD, n=3, read-out: AUC0-t, Geo-mean
  AUC(0-t): 12900 ng·h/mL
200 mg, C1D15, 200 mg QD, n=3, read-out: AUC0-t, Mean (SD)
  AUC(0-t): 13200 ng·h/mL
200 mg, C1D15, 200 mg QD, n=3, read-out: AUC0-t, Median (Min, max)
  AUC(0-t): 13800 ng·h/mL
200 mg, C1D15, 200 mg QD, n=3, read-out: Cmax, Geo-mean
  Cmax: 2490 ng/mL
200 mg, C1D15, 200 mg QD, n=3, read-out: Cmax, Mean (SD)
  Cmax: 2500 ng/mL
200 mg, C1D15, 200 mg QD, n=3, read-out: Cmax, Median (Min, max)
  Cmax: 2620 ng/mL
200 mg, C1D15, 200 mg QD, n=3
  concentration at 15 day: 149 ng/mL
  Tmax: 1 h
300 mg, C1D1, 300 mg BID, n=16, read-out: AUCinf, Geo-mean
  AUC(0-inf): 30900 ng·h/mL
300 mg, C1D1, 300 mg BID, n=16, read-out: AUCinf, Mean (SD)
  AUC(0-inf): 35200 ng·h/mL
300 mg, C1D1, 300 mg BID, n=16, read-out: AUCinf, Median (Min, max)
  AUC(0-inf): 28400 ng·h/mL
300 mg, C1D1, 300 mg BID, n=16, read-out: T1/2, Geo-mean (converted)
  half-life: 11.9 h
300 mg, C1D1, 300 mg BID, n=16, read-out: T1/2, Mean (SD) (converted)
  half-life: 12.1 h
300 mg, C1D1, 300 mg BID, n=16, read-out: T1/2, Median (Min, max) (converted)
  half-life: 11.8 h

— publication PMC10006169, “A phase I trial of LXS196, a protein kinase C (PKC) inhibitor, for metastatic uveal melanoma” (British Journal of Cancer, 2023)
